In patent US7981928B2, “Chemotherapy method using x-rays” (Nanodynamics, Inc., priority 2002, dated 2011):

Experiments:
cells = details: cited from earlier work
mice = details: cited from earlier work
neuroblastoma lines = test: nuclear chemotherapy with 77BrdC on neuroblastoma lines; format: cell-based; details: ten neuroblastoma lines tested; H4U blockage
Description: An investigation of a method called “nuclear chemotherapy” was done many years previously at Sloan-Kettering Research Institute in New York, by Dr. Chia-Gee Wang and Dr. Lawrence Helson. The research was done using ^77BrdC, where ^77Br (half-life at 57 hours) would undergo a K-capture and deliver 10^6 or more Gy at a small distance. The […] of BrdC to BrdU can be blocked by the non-toxic H4U and therefore excluding BrdC from being incorporated into the DNA pool. Certain transformed cells, on the other hand, would make use of a more primitive kinase to bypass the H4U blockage, and incorporate BrdC to form BrdU. The ^77Br was made by adding an α particle to ^75As in a facility in the U.K. ^77Br was obtained in liquid solution, and ^77BrdC was made. […] The cells simply stopped mitosis while continuing most of the cellular functions. The Auger electrons from the ^77BrdU delivered such a high dose of the DNA duplex that no cellular repair was possible.

Molecule: 7-DTPA-Paclitaxel
- retention of paclitaxel potency in the cells (cells): retain much of the paclitaxel potency

Molecule: O=C([O-])CN(CCN(CC(=O)[O-])CC(=O)O)CCN(CC(=O)[O-])CC(=O)O.[Gd+3] [Gd-DTPA]
- LD50 in mice (mice): ~10 mmol/kg

Molecule: Nc1nc(=O)n([C@H]2C[C@H](O)[C@@H](CO)O2)cc1[77Br] [^77BrdC]
- sensitivity of neuroblastoma lines (neuroblastoma lines): two of the ten lines were sensitive
